Source: patent US20250275995A1, “NICOTINAMIDE RIBOSIDE DOSAGE REGIMEN FOR TREATING PARKINSON'S DISEASE” (VESTLANDETS INNOVASJONSSELSKAP AS (VIS), priority 2022, published 2025)

Experiments:
Parkinson's Disease (PD) [1] = test: NR-SAFE: MDS-UPDRS and Hoehn and Yahr scores; assay type: in vivo, human
Procedure: At screening for trial entry, candidates underwent physical and neurological examination. Enrolled participants were assessed by physical visits by a movement disorder specialist at baseline (visit 1, V1), day 7 (V4), day 14 (V5), day 21 (V6) and day 28 (V7). At baseline and day 28 participants underwent additional assessment with the Movement Disorder Society Unified Parkinson's disease Rating Scale section I-IV (MDS-UPDRS). At all physical visits an electrocardiogram (ECG), vital parameters (blood pressure, pulse, weight, height) and blood samples were obtained. Additional blood samples were taken on day 3 (V2) and day 5 (V3) to assess safety. The participants were interviewed by telephone consultation by a study nurse on day 3 and day 35 to screen for additional adverse events. Participants were instructed to take their anti-Parkinson drugs as they normally would and no changes were made to anti-Parkinson drug treatment during the trial. Adverse events (AEs) were recorded by the investigating physician. These were then classified by severity according to the Common Terminology Criteria for Adverse Events v5.0 (CTCAE)^13 as either mild (1), moderate (2), severe (3), life-threatening (4) or death (5). The AE relation to the study drug was scored as unrelated (1), unlikely (2), possible (3), probable (4) or definitely (5). 13 Freites-Martinez, A., Santana, N., Arias-Santiago, S. & Viera, A. Using the Common Terminology Criteria for Adverse Events (CTCAE—Version 5.0) to Evaluate the Severity of Adverse Events of Anticancer Therapies. Actas Dermosifiliogr (Engl Ed) 112, 90-92 (2021).

Parkinson's Disease (PD) [2] = test: NADPARK: clinical severity by MDS-UPDRS; assay type: in vivo, human
Procedure: The present inventors completed a phase I randomized, double blinded trial, aiming to assess the tolerability, cerebral bioavailability and molecular effects of NR therapy in PD. A total of 30 individuals with newly diagnosed, drug-naïve PD were randomized to NR 500 mg×2/day or placebo for 30 days (Cell Metab. 2022 Mar. 1; 34(3):396-407.e6).
NR is associated with clinical improvement of PD. NR at 1000 mg daily was associated with a significant decrease in the total MDS-UPDRS (I-III) score between visits (mean decrease: 2.33±2.35; paired t-test: p=0.017).

[3] = NR-SAFE: clinical laboratory values from blood samples (serum); assay type: in vivo, human
Procedure: Analysis of clinical laboratory values from blood samples was performed by the Department of Medical Biochemistry and Pharmacology (MBF) at Haukeland University Hospital, Bergen, Norway.

adult humans = conditions: cited from earlier work
brain NAD levels = test: NAD-brain pharmacokinetic study: brain NAD by 31P-MRS; assay type: in vivo, human; conditions: 1200 mg daily for 8 days
Procedure: • At screening, participants are assessed for eligibility, inclusion/exclusion criteria, medical history and concomitant medication is recorded, and informed consent signed. • The NAD-brain study performs a parallel assessment of NAD replenishment therapy pharmacokinetics in the blood and brain of healthy human subjects and subjects with Parkinson's disease (PD). Healthy individuals and individuals with PD undergo repeated blood sampling and 31P-MRS brain scans during two 20-day periods, each of which starts with 8 days of daily intake of NR 600 mg×2, or NMN 600 mg×2 (Table 10). • For each 20-day period the testing (i.e., scanning and blood draw) frequency is shown in Table 10, below. The two 20-day periods are 14 days apart to allow for washout of the previous compound. This is a pharmacokinetic (PK) study where 6 healthy individuals (3 male and 3 female): • 1) Received NR 1200 mg daily (600 mg×2) for 8 days, followed by an additional 11 days follow up, while undergoing serial blood and brain NAD-measurement. • 2) Received NMN 1200 mg daily (600 mg×2) for 8 days, followed by an additional 11 days follow up, while undergoing serial blood and brain NAD-measurement. The individuals were mixed, so that in stage-1 three individuals received NR and three individuals received NMN, then in stage-2 they switched (Cross-over design). There were almost three weeks (20 days) of washout between the last dose of the first compound, and before the first dose of the second compounds. In the brain, total NAD (NAD^++NADH) levels were measured by 31P-MRS as previously described^19. […] 19 Brakedal, B. et al. The […] study: A randomized phase I trial of nicotinamide riboside supplementation in Parkinson's disease. Cell Metab 34, 396-407.e6 (2022).

[4] = V1 (baseline), NR 3000 mg daily group, ±sd
[5] = V7 (day 28), NR 3000 mg daily, ±sd

Which “clinical symptoms of PD, measured by MDS-UPDRS” value (Parkinson's Disease (PD) [1]; NR 3000 mg daily, 4 weeks) does the source give for `NC(=O)c1ccc[n+]([C@@H]2O[C@H](CO)[C@@H](O)[C@H]2O)c1` [NR, nicotinamide riboside] here?
Its value is “significantly improved clinical symptoms of PD”.

And the “Hoehn & Yahr score” value (Parkinson's Disease (PD) [1]; [4])?
Its value is 2 ± 0.66.

What about the “MDS-UPDRS Part I” value (Parkinson's Disease (PD) [1]; [4]) of the same compound?
The value was 7.8 ± 5.37.

What about the “MDS-UPDRS Part II” value (Parkinson's Disease (PD) [1]; [4]) of the same compound?
Its value is 9.4 ± 6.25.

And the “MDS-UPDRS Part III” value (Parkinson's Disease (PD) [1]; [4])?
The value was 29.7±12.85.

And the “MDS-UPDRS Part IV” value (Parkinson's Disease (PD) [1]; [4])?
The value was 4.1 ± 4.88.

And the “Total MDS-UPDRS” value (Parkinson's Disease (PD) [1]; [4])?
The value was 51±21.28.

And the “total MDS-UPDRS, subgroup” value (Parkinson's Disease (PD) [1]; V1, subgroup of 8 participants with similar intervals since last levodopa dose, NR 3000 mg daily)?
Its value is 46.62±17.76.

And the “Hoehn & Yahr score” value (Parkinson's Disease (PD) [1]; [5])?
The value was 2.1 ± 0.31.

And the “MDS-UPDRS Part I” value (Parkinson's Disease (PD) [1]; [5])?
The value was 5.6 ± 5.01.

And the “MDS-UPDRS Part II” value (Parkinson's Disease (PD) [1]; [5])?
The value was 8.8 ± 7.58.

What about the “MDS-UPDRS Part III” value (Parkinson's Disease (PD) [1]; [5]) of the same compound?
Its value is 22.7±7.55.

And the “MDS-UPDRS Part IV” value (Parkinson's Disease (PD) [1]; [5])?
Its value is 3.2 ± 3.15.

And the “Total MDS-UPDRS” value (Parkinson's Disease (PD) [1]; [5])?
Its value is 40.3±17.1.

And the “total MDS-UPDRS, subgroup” value (Parkinson's Disease (PD) [1]; V7, subgroup of 8 participants with similar intervals since last levodopa dose, NR 3000 mg daily)?
Its value is 35.75±11.74.

What about the “total MDS-UPDRS mean change, subgroup” value (Parkinson's Disease (PD) [1]; V7−V1, subgroup of 8 participants with similar intervals since last levodopa dose, NR 3000 mg daily) of the same compound?
Its value is −10.87±11.15.

And the “Hoehn & Yahr score, Δ” value (Parkinson's Disease (PD) [1]; Δ=V7−V1, NR 3000 mg daily, ±sd)?
The value was 0.1 ± 0.56.

And the “MDS-UPDRS Part I, Δ” value (Parkinson's Disease (PD) [1]; Δ=V7−V1, NR 3000 mg daily, ±sd)?
The value was −2.2 ± 3.52.

What about the “MDS-UPDRS Part II, Δ” value (Parkinson's Disease (PD) [1]; Δ=V7−V1, NR 3000 mg daily, ±sd) of the same compound?
Its value is −0.6 ± 2.36.

What about the “MDS-UPDRS Part III, Δ” value (Parkinson's Disease (PD) [1]; Δ=V7−V1, NR 3000 mg daily, ±sd) of the same compound?
Its value is −7 ± 7.98.

What about the “MDS-UPDRS Part IV, Δ” value (Parkinson's Disease (PD) [1]; Δ=V7−V1, NR 3000 mg daily, ±sd) of the same compound?
The value was −0.9 ± 2.60.

And the “Total MDS-UPDRS, Δ (mean change)” value (Parkinson's Disease (PD) [1]; Δ=V7−V1, NR 3000 mg daily, ±sd)?
Its value is −10.7±9.94.

What about the “mean decrease in total MDS-UPDRS (I-III) score between visits” value (Parkinson's Disease (PD) [2]; NR 1000 mg daily, as stated in first sentence) of the same compound?
The value was 2.33±2.35.

And the “change in MDS-UPDRS (total or subsections I-III)” value (Parkinson's Disease (PD) [2]; NR 1000 mg daily, whole NR group)?
The value was “No significant change”.

What about the “mean decrease in MDS-UPDRS” value (Parkinson's Disease (PD) [2]; nine individuals showing >10% increase in cerebral NAD levels) of the same compound?
The value was 2.33±2.35.

And the “mean decrease in MDS-UPDRS” value (Parkinson's Disease (PD) [2]; subgroup of ten NR-recipients with increased cerebral NAD levels)?
Its value is 1.9±2.78.

And the “clinical symptoms related to the observed HCy increase” value ([3]; NR 3000 mg daily, 4 weeks)?
Its value is “No participants developed any clinical symptoms”.

And the “increase in triglycerides, total cholesterol and LDL” value ([3]; NR 3000 mg daily, 4 weeks)?
Its value is “no such effects”.

And the “serum folic acid, methylmalonic acid and vitamin B12” value ([3]; NR 3000 mg daily, 4 weeks)?
The value was “remained unchanged”.

What about the serum triglyceride levels ([3]; NR group, 3000 mg daily, 4 weeks) of the same compound?
Its serum triglyceride levels is “nominal trend for a reduction in serum triglyceride levels”.

And the “change in serum HCy at second visit” value ([3]; V2, day 3 of treatment, vs baseline, NR 3000 mg daily)?
Its value is “+2.29±1.72 μmol/L”.

What about the “change in serum HCy after second visit until end of study” value ([3]; V2 to V7, NR 3000 mg daily) of the same compound?
Its value is -0.63 ± 1.76 µmol/L.

What about the “serum HCy levels relative to normal range” value ([3]; most participants, NR 3000 mg daily) of the same compound?
Its value is “remained within normal range”.

And the “change in serum homocysteine levels, last visit vs baseline” value ([3]; Δ V7−V1, NR 3000 mg daily)?
Its value is “+1.66±0.63 μmol/L”.

What about the “triglycerides, total cholesterol and LDL” value (adult humans; NR at lower doses, e.g., in combination with pterostilbene) of the same compound?
Its value is “mild increase in triglycerides, total cholesterol and LDL”.

And the “tolerability in adult humans” value (adult humans; doses up to at least 2000 mg daily)?
Its value is “well tolerated with no evidence of toxicity”.

What about the “brain NAD levels, baseline vs day of maximal blood NAD” value (brain NAD levels; 31P-MRS, day 9 (NR), day 8 (NMN)) of the same compound?
The value was “significant increase in brain NAD levels”.

What about the “NAD levels at day 19” value (brain NAD levels; 11 days after last dose) of the same compound?
The value was “remained elevated”.
